Source: paper PMC5198778 (MedChemComm, 2016)

Experiments:
all type I PRMTs = settings: cited from earlier work
[1] = test system: type II and type III PRMTs as well as other methyltransferases; settings: cited from earlier work
CARM1 = target: T1, CARM1 (Homo sapiens, UniProt Q86X55); assay: Mechanism of action; format: biochemical; settings: IC50 against CARM1 with increasing peptide substrate or SAM concentrations
T1 sequence (Q86X55 1-608): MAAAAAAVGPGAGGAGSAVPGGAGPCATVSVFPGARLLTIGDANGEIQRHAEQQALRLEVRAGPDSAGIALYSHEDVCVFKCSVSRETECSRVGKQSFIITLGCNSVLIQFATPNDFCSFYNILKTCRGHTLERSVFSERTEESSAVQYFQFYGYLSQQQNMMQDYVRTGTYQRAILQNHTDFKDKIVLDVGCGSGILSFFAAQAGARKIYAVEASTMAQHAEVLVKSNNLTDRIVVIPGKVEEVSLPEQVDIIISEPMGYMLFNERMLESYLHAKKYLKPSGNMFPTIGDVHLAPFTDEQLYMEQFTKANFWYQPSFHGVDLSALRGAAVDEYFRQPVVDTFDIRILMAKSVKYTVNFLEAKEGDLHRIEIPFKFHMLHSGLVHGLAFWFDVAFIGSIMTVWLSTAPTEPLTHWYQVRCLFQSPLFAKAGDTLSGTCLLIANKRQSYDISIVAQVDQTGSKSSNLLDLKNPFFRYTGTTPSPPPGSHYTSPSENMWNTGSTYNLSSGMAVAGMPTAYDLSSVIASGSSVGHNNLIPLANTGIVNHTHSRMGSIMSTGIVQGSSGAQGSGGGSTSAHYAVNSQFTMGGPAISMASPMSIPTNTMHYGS

PRMT8 = PRMT8 (Homo sapiens, UniProt Q9NR22); assay: PRMT8 biochemical inhibition assay
other PRMTs = assay: Activity against other PRMTs; format: biochemical; settings: PRMTs other than CARM1, PRMT6 and PRMT8

PRMT8, sequence (Q9NR22 whole entry, species assumed): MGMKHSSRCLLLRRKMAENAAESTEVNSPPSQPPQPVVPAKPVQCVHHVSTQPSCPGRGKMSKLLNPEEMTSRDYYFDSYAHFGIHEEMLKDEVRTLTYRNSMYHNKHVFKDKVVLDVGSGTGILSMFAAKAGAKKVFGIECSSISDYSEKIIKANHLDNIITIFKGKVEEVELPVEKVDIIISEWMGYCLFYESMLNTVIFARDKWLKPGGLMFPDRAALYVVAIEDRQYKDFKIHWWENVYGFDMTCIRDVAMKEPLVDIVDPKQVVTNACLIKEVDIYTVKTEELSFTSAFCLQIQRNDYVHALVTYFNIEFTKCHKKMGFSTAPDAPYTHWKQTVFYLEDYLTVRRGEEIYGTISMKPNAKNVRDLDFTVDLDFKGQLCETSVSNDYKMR

Compound: CC(C)Oc1ccc(-c2c[nH]cc2CN(C)CCN)cc1 [MS023]
- activity against all type I PRMTs (all type I PRMTs): potent
- activity against type II and type III PRMTs and other methyltransferases [1]: inactive

Compound: CNCCN1CCC(NCc2cccc(Br)c2)CC1 [Compound 9]
- mechanism of action versus cofactor SAM and peptide substrate (CARM1): noncompetitive

Compound: CNCCN1CC(OCc2cccc(OC(F)(F)F)c2)C1 [Compound 6]
- IC50 (PRMT8): 1200 nM
- activity against other PRMTs (other PRMTs): inactive
